Converted amounts (≈) assume the structure as drawn. The source made the active and inactive calls. The calls are words filed in the database; no cut-off is given here.
Key:
[1] = test system: P388; assay: In vivo antitumor activity against mouse P388 cells at 75 mg/kg; type: functional
[2] = test system: P388; assay: Cytotoxicity against mouse P388 cells; type: functional; settings: read-out: ED50 (the source's name)
[3] = test system: P388; assay: In vivo antitumor activity against mouse P388 cells at 1.25 to 10 mg/kg; type: functional, organism-based
[4] = test system: P388; assay: In vivo antitumor activity against mouse P388 cells at 20 mg/kg; type: functional
[5] = test system: P388; assay: In vivo antitumor activity against mouse P388 cells at 10 mg/kg; type: functional
[6] = test system: P388; assay: In vivo antitumor activity against mouse P388 cells at 5 to 200 mg/kg; type: functional, organism-based

## O[C@H]1[C@H]2c3cc4c(cc3CN3CCC(=C[C@@H]1O)[C@H]23)OCO4 [LYCORINE]
[1]
  T/C: 135%

## COc1c2c(cc3c1OCO3)[C@]13C=C[C@H](OC)C[C@H]1N(C2)C[C@@H]3O [AMBELLINE]
[2]
  EC50: 1.6 µg/mL (≈ 4.83 µM)
[3]
  Activity: inactive

## [Cl-].c1cc2c3c(c1)c1cc4c(cc1c[n+]3CC2)OCO4 [ANHYDROLYCORINIUM CHLORIDE]
[4]
  T/C: 169%
[5]
  T/C: 164%

## CC(=O)O[C@@H]1CC=C2CCN3Cc4cc5c(cc4[C@H]1[C@@H]23)OCO5 [ACETYLCARANINE]
[2]
  EC50: 0.23 µg/mL (≈ 0.734 µM)
[6]
  Activity: inactive
